Patent publication US20210196681A1, “SELECTIVE PRESENILIN-2 GAMMA-SECRETASE INHIBITORS” (UNIVERSITEIT MAASTRICHT, priority 2018, published 2021)

Legend:
Presenilin 2 (Psen2) = target: T1, Presenilin 2 (Psen2) (Homo sapiens, UniProt P49810); test: Presenilin specific luciferase/cleavage reporter assay in PS1/2 DKO mEF reconstituted with Presenilin 2; format: cell-based; settings: Psen2 reconstituted cells, compared to cleavage inhibition of the same compound for Psen1; FIG. 4
T1 construct: expressed in transfected cells; host or cells: PS1/2 DKO mouse embryonic fibroblasts (mEF) reconstituted with Presenilin 2
T1 sequence (P49810 1-297 limits assumed): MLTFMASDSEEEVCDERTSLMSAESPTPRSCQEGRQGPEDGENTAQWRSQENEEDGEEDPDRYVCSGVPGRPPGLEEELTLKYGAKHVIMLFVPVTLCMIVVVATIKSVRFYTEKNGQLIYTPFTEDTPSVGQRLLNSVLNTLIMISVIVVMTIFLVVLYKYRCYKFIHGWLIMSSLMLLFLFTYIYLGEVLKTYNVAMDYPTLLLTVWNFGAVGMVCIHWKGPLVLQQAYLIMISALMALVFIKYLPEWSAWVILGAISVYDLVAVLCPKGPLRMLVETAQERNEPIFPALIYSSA
T1 sequence (P49810 298-448 limits assumed): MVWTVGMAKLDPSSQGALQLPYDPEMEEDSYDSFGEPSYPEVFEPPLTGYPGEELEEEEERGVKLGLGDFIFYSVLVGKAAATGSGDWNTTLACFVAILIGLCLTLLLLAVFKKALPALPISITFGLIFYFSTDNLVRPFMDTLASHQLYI
T1 sequence (P57716 34-708 partner limits assumed): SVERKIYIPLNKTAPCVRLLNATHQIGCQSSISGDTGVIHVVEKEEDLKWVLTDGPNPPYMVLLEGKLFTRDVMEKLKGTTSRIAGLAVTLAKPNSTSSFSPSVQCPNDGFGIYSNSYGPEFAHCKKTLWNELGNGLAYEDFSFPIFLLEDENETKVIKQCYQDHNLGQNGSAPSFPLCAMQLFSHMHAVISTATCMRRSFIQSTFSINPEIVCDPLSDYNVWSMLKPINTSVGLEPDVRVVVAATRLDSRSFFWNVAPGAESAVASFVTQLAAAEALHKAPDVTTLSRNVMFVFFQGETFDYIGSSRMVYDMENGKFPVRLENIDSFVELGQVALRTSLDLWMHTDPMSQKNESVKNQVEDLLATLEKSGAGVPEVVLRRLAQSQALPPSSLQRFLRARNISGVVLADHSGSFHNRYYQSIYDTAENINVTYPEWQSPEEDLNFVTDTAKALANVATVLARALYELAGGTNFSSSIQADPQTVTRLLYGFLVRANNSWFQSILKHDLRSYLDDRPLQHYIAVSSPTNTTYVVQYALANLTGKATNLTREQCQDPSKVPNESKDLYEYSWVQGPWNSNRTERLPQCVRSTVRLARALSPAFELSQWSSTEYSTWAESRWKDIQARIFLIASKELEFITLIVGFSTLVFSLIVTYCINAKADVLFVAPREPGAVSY
T1 sequence (Q8BVF7 whole entry partner): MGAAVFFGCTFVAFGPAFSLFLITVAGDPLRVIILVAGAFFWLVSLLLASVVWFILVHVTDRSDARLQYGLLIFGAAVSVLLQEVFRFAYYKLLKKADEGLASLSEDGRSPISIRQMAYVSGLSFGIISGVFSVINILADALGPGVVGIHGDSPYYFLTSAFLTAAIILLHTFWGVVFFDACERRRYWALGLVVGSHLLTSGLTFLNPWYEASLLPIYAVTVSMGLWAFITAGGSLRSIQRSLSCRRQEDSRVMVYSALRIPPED
T1 sequence (Q9CQR7 whole entry partner): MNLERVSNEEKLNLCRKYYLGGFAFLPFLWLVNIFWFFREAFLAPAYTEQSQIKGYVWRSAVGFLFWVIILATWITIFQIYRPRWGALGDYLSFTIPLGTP
Method: Immunoblot on cell lysates of PS1/2 DKO cells, and PS1/2 DKO reconstituted with either Presenilin 1 or Presenilin 2 were provided. Blots were probed with antibodies for nicastrin, Presenilin 1 (C-terminal fragment), Presenilin 2 (C-terminal fragment), and β-actin (loading control) to verify the cell construct used for later experiments. Double knock out of PSEN1 and PSEN2 and reconstitution were successful.
Cells were plated 24 hours prior to transfection in 6 wells plates (200.000 cells/well in 2 mL). Cells were transfected using linear polyethylenimin (P-PEI) and DMEM/f12. 2.3 μg Firefly luciferase reporter plasmids containing synthetic Gal4-binding sites (5xUAS FR-luc) were used per 6 well, as well as 150 ng herpes thymidine kinase-driven Renilla luciferase (here serving as a housekeeping gene, and thus normalizing yardstick) and 50 ng Histone-2B (H2B)-GFP (here serving as a control for transfection success). […] 24 h after transfection, […] were washed with PBS, lysed and measured following manufacturer's directions for the Dual Luciferase Reporter (DLRTM) Assay system (Promega, The Netherlands). Analysis was carried out using the FLUOstar microplate reader (BMG Labtech, Germany). […]

[1] = test system: oncogenic mutant Notch1 (ΔEGF-Notch1-L1594P-MYC) activity

Cleavage inhibition (Psen2 specificity) (Presenilin 2 (Psen2)) | SMILES | Inhibition of mutant Notch1 transcriptional activity by CQ [1]
high percentage of cleavage inhibition | CCC[C@H](NC(=O)[C@@H](O)c1cc(F)cc(F)c1)C(=O)Nc1cn(C(C)(C)CN(C)C)cn1 [SN262, (S)-2-((S)-2-(3,5-difluorophenyl)-2-hydroxyacetamido)-N-(1-(1-(dimethylamino)-2-methylpropan-2-yl)-1H-imidazol-4-yl)pentanamide] | –
– | CCN(CC)CCCC(C)Nc1ccnc2cc(Cl)ccc12 (centres unmarked) [CQ, Chloroquine] | most strongly inhibited
